Test results published in PubChem BioAssay (NCI).
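Each compound was tested at five concentrations against cells in 96-well plates for 48 hours. GI50 marks 50% less growth. TGI marks complete inhibition of growth.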

Key:
Assay in all cases: growth of human tumour cells (NCI), 48 h
RXF 393 renal = test system: RXF 393 renal
OVCAR-3 ovarian = test system: OVCAR-3 ovarian
EKVX NSCLC = test system: EKVX NSCLC
SN12C renal = test system: SN12C renal
HT29 colon = test system: HT29 colon
NCI/ADR-RES ovarian = test system: NCI/ADR-RES ovarian
HOP-62 NSCLC = test system: HOP-62 NSCLC
CCRF-CEM leukemia = test system: CCRF-CEM leukemia
HCT-116 colon = test system: HCT-116 colon
HS 578T breast = test system: HS 578T breast

Row | Structure (SMILES) | TGI (RXF 393 renal) [µM] | TGI (OVCAR-3 ovarian) [µM] | TGI (EKVX NSCLC) [µM] | TGI (SN12C renal) [µM] | TGI (HT29 colon) [µM] | TGI (NCI/ADR-RES ovarian) [µM] | TGI (HOP-62 NSCLC) [µM] | TGI (CCRF-CEM leukemia) [µM] | TGI (HCT-116 colon) [µM] | TGI (HS 578T breast) [µM] | GI50 (CCRF-CEM leukemia) [µM]
1 | CCN(CC)CCO[Si](OCCN(CC)CC)(OCCN(CC)CC)OCCN(CC)CC | > 100 | > 100 | > 100 | > 100 | > 100 | – | – | – | – | – | –
2 | FC(F)(F)c1ccc2nc(Sc3ccc4ccccc4c3)cnc2c1 | 92.6 | – | > 100 | > 100 | > 100 | > 100 | > 100 | > 100 | > 100 | > 100 | –
3 | O=C(CCC1CCCCN1)Nc1ccc2c(c1)C(=O)c1ccc(NC(=O)CCN3CCCCC3)cc1C2=O (stereo not drawn) | 2.07 | 8.37 | – | 4.34 | 10.8 | – | 27.9 | 4.86 | 4.96 | – | 1.12
4 | Cc1csc(-n2c(C)nc3cc(Cl)ccc3c2=O)n1 | > 100 | > 100 | 81.4 | > 100 | > 100 | > 100 | > 100 | > 100 | > 100 | – | –
5 | CCOC(C)OC1CC(n2cc(C)c(=O)[nH]c2=O)OC1CO (stereo not drawn) | > 100 | > 100 | > 100 | > 100 | > 100 | – | > 100 | > 100 | > 100 | – | –
6 | CCCCC[C@H]1CCCCCCCCCC(=O)OC2C(O[C@@H]3OC(C)[C@H](OC(=O)[C@@H](C)CC)C(O[C@@H]4OC(C)[C@H](O)C(O)[C@@H]4O)[C@@H]3OC(=O)[C@H](C)CC)[C@H](OC3C(O)[C@@H](O)C(C)O[C@H]3O1)OC(CO)[C@H]2O (stereo partly drawn) | – | 32 | 36.7 | 31.3 | 30.3 | 36.9 | 32.8 | 32.5 | 29.7 | 35.8 | –
